Among the data in US8471005B2 (Cephalon, Inc., priority 2008, dated 2013) are IC50 values, retold here.

In assay [1] the target is T1, JAK2 (Homo sapiens, UniProt O60674).
T1 construct: host or cells: baculovirus expression system
The assay can be described thus: Recombinant Human JAK2 Kinase Assay (TRF). It counts as biochemical. To be noted: JAK2 Kinase Inhibition; read-out: JAK2 Potency. An outline of the steps:
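TRF read-out: Eu-N1 PY100 anti-phosphotyrosine antibody detects product. Enzyme is baculovirus-expressed JAK2 at 15 ng/ml; substrate is a biotinyl 15-mer peptide bound to Neutravidin-coated wells. Buffer 20 mM HEPES pH 7.2, 0.2 μM ATP, 1 mM MnCl2, 0.1% BSA, 2.5% DMSO final; 20 min, RT.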

In assay [2] the target is T2, ALK (Homo sapiens, UniProt Q9UM73).
T2 construct: host or cells: baculovirus expression system
T2 sequence (Q9UM73 19-1620): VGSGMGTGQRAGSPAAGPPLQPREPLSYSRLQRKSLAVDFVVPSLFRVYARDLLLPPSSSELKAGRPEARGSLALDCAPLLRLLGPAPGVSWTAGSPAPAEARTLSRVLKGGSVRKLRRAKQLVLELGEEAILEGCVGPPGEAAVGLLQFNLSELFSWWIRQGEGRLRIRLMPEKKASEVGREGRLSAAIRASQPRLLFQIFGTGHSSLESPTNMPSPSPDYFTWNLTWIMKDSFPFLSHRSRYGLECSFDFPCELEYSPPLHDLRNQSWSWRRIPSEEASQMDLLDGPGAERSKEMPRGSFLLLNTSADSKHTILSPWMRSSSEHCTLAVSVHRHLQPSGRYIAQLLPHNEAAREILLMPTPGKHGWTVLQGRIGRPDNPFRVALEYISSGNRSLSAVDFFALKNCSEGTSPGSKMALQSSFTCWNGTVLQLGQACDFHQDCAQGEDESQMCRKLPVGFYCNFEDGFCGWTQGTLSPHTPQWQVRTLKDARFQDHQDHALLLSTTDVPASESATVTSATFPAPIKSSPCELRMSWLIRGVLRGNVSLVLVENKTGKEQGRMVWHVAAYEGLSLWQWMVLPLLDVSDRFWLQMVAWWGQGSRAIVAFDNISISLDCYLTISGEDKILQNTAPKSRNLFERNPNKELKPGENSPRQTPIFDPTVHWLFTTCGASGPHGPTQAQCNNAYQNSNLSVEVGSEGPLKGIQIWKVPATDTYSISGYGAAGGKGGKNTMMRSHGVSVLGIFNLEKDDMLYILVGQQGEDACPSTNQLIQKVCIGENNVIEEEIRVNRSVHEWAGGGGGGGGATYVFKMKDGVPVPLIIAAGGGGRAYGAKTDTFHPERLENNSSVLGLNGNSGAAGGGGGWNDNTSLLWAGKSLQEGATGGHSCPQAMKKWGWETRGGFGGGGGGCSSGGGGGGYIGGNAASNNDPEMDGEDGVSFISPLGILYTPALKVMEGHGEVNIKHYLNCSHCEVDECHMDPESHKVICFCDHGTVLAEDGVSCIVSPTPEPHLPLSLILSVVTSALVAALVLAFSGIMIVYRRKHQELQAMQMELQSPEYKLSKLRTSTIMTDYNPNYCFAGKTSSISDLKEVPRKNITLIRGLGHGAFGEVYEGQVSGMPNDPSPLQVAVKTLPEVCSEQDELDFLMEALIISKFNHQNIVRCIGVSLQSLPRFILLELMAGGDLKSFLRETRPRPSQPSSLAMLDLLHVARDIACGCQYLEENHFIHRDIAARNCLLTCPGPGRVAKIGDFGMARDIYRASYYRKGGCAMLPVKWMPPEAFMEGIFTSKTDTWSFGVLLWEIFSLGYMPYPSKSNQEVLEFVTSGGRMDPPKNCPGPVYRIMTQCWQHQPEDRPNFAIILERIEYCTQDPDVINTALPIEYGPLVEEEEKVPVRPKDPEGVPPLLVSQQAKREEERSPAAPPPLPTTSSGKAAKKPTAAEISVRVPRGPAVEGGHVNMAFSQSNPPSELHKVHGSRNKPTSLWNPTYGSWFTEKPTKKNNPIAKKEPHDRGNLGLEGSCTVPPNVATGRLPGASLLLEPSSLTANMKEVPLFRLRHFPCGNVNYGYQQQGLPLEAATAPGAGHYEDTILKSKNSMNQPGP
The assay can be described thus: ALK Kinase Assay (ELISA/TRF, PLC-γ substrate). To be noted: ALK Kinase Inhibition; read-out: ALK Potency. It is filed as biochemical. In a few lines:
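Read-out is time-resolved fluorescence from a Eu-N1-labeled PT66 antibody that binds phosphorylated PLC-γ, the substrate coated at 10 μg/mL in TBS. ALK at 30 ng/ml starts the reaction, which runs 15 minutes at 37° C.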

T1 sequence (O60674 whole entry): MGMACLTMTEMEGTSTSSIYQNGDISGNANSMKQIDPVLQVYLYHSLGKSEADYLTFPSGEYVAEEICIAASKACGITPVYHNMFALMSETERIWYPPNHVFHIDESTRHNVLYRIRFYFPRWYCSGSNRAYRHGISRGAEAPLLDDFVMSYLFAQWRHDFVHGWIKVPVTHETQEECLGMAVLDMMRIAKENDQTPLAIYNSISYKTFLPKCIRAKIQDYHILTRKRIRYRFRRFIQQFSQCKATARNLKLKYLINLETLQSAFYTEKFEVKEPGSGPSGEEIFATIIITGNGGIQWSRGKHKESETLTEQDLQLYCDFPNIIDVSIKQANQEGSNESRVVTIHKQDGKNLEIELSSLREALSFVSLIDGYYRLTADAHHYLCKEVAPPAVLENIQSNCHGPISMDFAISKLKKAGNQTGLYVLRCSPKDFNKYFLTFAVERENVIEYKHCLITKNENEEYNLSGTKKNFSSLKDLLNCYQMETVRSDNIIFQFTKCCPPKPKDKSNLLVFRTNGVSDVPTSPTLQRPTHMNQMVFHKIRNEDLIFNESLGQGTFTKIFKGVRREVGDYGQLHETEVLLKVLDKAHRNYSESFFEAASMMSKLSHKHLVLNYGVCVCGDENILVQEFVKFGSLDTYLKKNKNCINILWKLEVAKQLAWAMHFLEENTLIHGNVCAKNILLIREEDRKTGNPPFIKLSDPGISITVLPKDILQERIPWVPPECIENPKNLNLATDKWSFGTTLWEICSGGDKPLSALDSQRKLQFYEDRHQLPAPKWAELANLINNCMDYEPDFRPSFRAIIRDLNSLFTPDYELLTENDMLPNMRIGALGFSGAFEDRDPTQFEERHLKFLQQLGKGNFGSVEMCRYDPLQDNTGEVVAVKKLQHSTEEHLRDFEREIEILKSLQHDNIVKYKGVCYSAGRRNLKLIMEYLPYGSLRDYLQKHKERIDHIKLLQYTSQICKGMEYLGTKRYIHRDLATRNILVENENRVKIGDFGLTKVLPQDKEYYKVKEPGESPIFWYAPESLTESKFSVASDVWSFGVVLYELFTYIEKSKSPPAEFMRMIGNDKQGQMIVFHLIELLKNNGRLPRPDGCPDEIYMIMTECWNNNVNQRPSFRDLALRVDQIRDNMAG

In the case of `CC(C)C(=O)Nc1cccc(Nc2ncc3ccc(-c4cccc(S(=O)(=O)NC(C)(C)C)c4)n3n2)c1` [Example 1385, N-{3-[7-(3-tert-Butylsulfamoyl-phenyl)-pyrrolo[2,1-f][1,2,4]triazin-2-ylamino]-phenyl}-isobutyramide], the IC50 in assay [1] was below 100 nM; in assay [2], 1000 to 10000 nM.

As for `CC(C)(C)NS(=O)(=O)c1cccc(-c2ccc3cnc(Nc4cccc(-n5cccn5)c4)nn23)c1` [Example 1386, N-tert-Butyl-3-[2-(3-pyrazol-1-yl-phenylamino)-pyrrolo[2,1-f][1,2,4]triazin-7-yl]-benzenesulfonamide], the IC50 in assay [1] was below 100 nM; in assay [2], 1000 to 10000 nM.

With `CC(=O)Nc1cc(Nc2ncc3ccc(-c4cccc(S(=O)(=O)NC(C)(C)C)c4)n3n2)ccc1C(C)(C)C` [Example 1387, N-{2-tert-Butyl-5-[7-(3-tert-butylsulfamoyl-phenyl)-pyrrolo[2,1-f][1,2,4]triazin-2-ylamino]-phenyl}-acetamide], the IC50 in assay [1] is below 100 nM; in assay [2], 100 to 1000 nM.

Consider `CC(=O)N1CC(C)(C)c2ccc(Nc3ncc4ccc(-c5cccc(S(=O)(=O)NC(C)(C)C)c5)n4n3)cc21` [Example 1388, 3-[2-(1-Acetyl-3,3-dimethyl-2,3-dihydro-1H-indol-6-ylamino)-pyrrolo[2,1-f][1,2,4]triazin-7-yl]-N-tert-butyl-benzenesulfonamide], for which the figures for the IC50 in assay [1] and in assay [2] were below 100 nM and 100 to 1000 nM, respectively.

In the case of `Cn1cc(-c2ccc3cnc(Nc4cccc(NS(C)(=O)=O)c4)nn23)cn1` [Example 1389, N-{3-[7-(1-Methyl-1H-pyrazol-4-yl)-pyrrolo[2,1-f][1,2,4]triazin-2-ylamino]-phenyl}-methanesulfonamide], the values for the IC50 in assay [1] and in assay [2] were below 100 nM and 1000 to 10000 nM, respectively.

Turning to `CC(C)(C)NS(=O)(=O)c1cccc(-c2ccc3cnc(Nc4cccc(C(N)=O)c4)nn23)c1` [Example 1390, 3-[7-(3-tert-Butylsulfamoyl-phenyl)-pyrrolo[2,1-f][1,2,4]triazin-2-ylamino]-benzamide], the IC50 in assay [1] was below 100 nM; in assay [2] it was 1000 to 10000 nM.

Regarding `CC(C)(C)NS(=O)(=O)c1cccc(-c2ccc3cnc(Nc4cccc(-n5cnnc5)c4)nn23)c1` [Example 1391, N-tert-Butyl-3-[2-(3-[1,2,4]triazol-4-yl-phenylamino)-pyrrolo[2,1-f][1,2,4]triazin-7-yl]-benzenesulfonamide], the IC50 in assay [1] is below 100 nM; in assay [2], 100 to 1000 nM.

For `CN1CCN(c2cccc(Nc3ncc4ccc(-c5cccc(N6CCOCC6)c5)n4n3)c2)CC1` [Example 1392, [3-(4-Methyl-piperazin-1-yl)-phenyl]-[7-(3-morpholin-4-yl-phenyl)-pyrrolo[2,1-f][1,2,4]triazin-2-yl]-amine], the IC50 in assay [1] was below 100 nM; in assay [2], 100 to 1000 nM.

`CC(C)(C)NS(=O)(=O)c1cccc(-c2ccc3cnc(Nc4cccc(N5CCOCC5)c4)nn23)c1` [Example 1393, N-tert-Butyl-3-[2-(3-morpholin-4-yl-phenylamino)-pyrrolo[2,1-f][1,2,4]triazin-7-yl]-benzenesulfonamide]: the IC50 in assay [1] is below 100 nM; in assay [2], 100 to 1000 nM.

Regarding `CC(C)(C)NS(=O)(=O)c1cccc(-c2ccc3cnc(Nc4ccc(F)c(N5CCOCC5)c4)nn23)c1` [Example 1394, N-tert-Butyl-3-[2-(4-fluoro-3-morpholin-4-yl-phenylamino)-pyrrolo[2,1-f][1,2,4]triazin-7-yl]-benzenesulfonamide], the IC50 in assay [1] was below 100 nM; in assay [2], 100 to 1000 nM.

Regarding `CC(C)(C)NS(=O)(=O)c1cccc(-c2ccc3cnc(Nc4ccc(N5CCOCC5)c(F)c4)nn23)c1` [Example 1395, N-tert-Butyl-3-[2-(3-fluoro-4-morpholin-4-yl-phenylamino)-pyrrolo[2,1-f][1,2,4]triazin-7-yl]-benzenesulfonamide], the IC50 in assay [1] was below 100 nM; in assay [2], 100 to 1000 nM.

For `COc1cccc(Nc2ncc3ccc(-c4cccc(S(=O)(=O)NC(C)(C)C)c4)n3n2)c1` [Example 1396, N-tert-Butyl-3-[2-(3-methoxy-phenylamino)-pyrrolo[2,1-f][1,2,4]triazin-7-yl]-benzenesulfonamide], the IC50 in assay [1] was below 100 nM; in assay [2] it was 1000 to 10000 nM.

Consider `COCC(C)OC(=O)COc1ccccc1-c1ccc2cnc(Nc3ccc(N4CCN(C)CC4)c(F)c3)nn12` (stereo not drawn) [Example 1397, (2-{2-[3-Fluoro-4-(4-methyl-piperazin-1-yl)-phenylamino]-pyrrolo[2,1-f][1,2,4]triazin-7-yl}-phenoxy)-acetic acid 2-methoxy-1-methyl-ethyl ester], for which the IC50 in assay [1] is below 100 nM; in assay [2] it was 1000 to 10000 nM.

Take `CC(=O)Nc1cc(Nc2ncc3ccc(-c4cccc(S(=O)(=O)NC(C)(C)C)c4)n3n2)ccc1C` [Example 1398, N-{5-[7-(3-tert-Butylsulfamoyl-phenyl)-pyrrolo[2,1-f][1,2,4]triazin-2-ylamino]-2-methyl-phenyl}-acetamide]: the IC50 in assay [1] is below 100 nM; in assay [2], 100 to 1000 nM.

Consider `CC(C)(C)NS(=O)(=O)c1cccc(-c2ccc3cnc(Nc4ccc(C(N)=O)cc4)nn23)c1` [Example 1399, 4-[7-(3-tert-Butylsulfamoyl-phenyl)-pyrrolo[2,1-f][1,2,4]triazin-2-ylamino]-benzamide], for which the IC50 in assay [1] was below 100 nM; in assay [2] it was 1000 to 10000 nM.

As to `CC(C)(C)NS(=O)(=O)c1cccc(-c2ccc3cnc(Nc4ccc(Cl)cc4)nn23)c1` [Example 1400, N-tert-Butyl-3-[2-(4-chloro-phenylamino)-pyrrolo[2,1-f][1,2,4]triazin-7-yl]-benzenesulfonamide], the IC50 in assay [1] is below 100 nM; in assay [2], 1000 to 10000 nM.

Consider `CN1CCN(c2ccc(Nc3ncc4ccc(-c5ccccc5OCC(=O)O)n4n3)cc2F)CC1` [Example 1401, (2-{2-[3-Fluoro-4-(4-methyl-piperazin-1-yl)-phenylamino]-pyrrolo[2,1-f][1,2,4]triazin-7-yl}-phenoxy)-acetic acid], for which the IC50 is below 100 nM in assay [1] and 100 to 1000 nM in assay [2].

Turning to `CC(C)(C)NS(=O)(=O)c1cccc(-c2ccc3cnc(Nc4ccc(-c5cnco5)cc4)nn23)c1` [Example 1402, N-tert-Butyl-3-[2-(4-oxazol-5-yl-phenylamino)-pyrrolo[2,1-f][1,2,4]triazin-7-yl]-benzenesulfonamide], the IC50 in assay [1] was below 100 nM; in assay [2], 1000 to 10000 nM.

On to `CN1CCN(c2ccc(Nc3ncc4ccc(-c5ccccc5OCC(=O)N(C)C)n4n3)cc2)CC1` [Example 1403, N,N-Dimethyl-2-(2-{2-[4-(4-methyl-piperazin-1-yl)-phenylamino]-pyrrolo[2,1-f][1,2,4]triazin-7-yl}-phenoxy)-acetamide], for which the results for the IC50 in assay [1] and in assay [2] were below 100 nM and 100 to 1000 nM, respectively.

With `CN1CCN(c2ccc(Nc3ncc4ccc(-c5ccccc5OCC(=O)N(C)C)n4n3)cc2F)CC1` [Example 1404, 2-(2-{2-[3-Fluoro-4-(4-methyl-piperazin-1-yl)-phenylamino]-pyrrolo[2,1-f][1,2,4]triazin-7-yl}-phenoxy)-N,N-dimethyl-acetamide], the IC50 in assay [1] is below 100 nM; in assay [2], 100 to 1000 nM.

`COc1ccc(-c2ccc3cnc(Nc4ccc(CN5CCCC5)cc4)nn23)cn1` [Example 1405, [7-(6-Methoxy-pyridin-3-yl)-pyrrolo[2,1-f][1,2,4]triazin-2-yl]-(4-pyrrolidin-1-ylmethyl-phenyl)-amine]: the values for the IC50 in assay [1] and in assay [2] were below 100 nM and 1000 to 10000 nM, respectively.

Take `COc1ccc(-c2ccc3cnc(Nc4ccc(C(=O)N5CCOCC5)cc4)nn23)cn1` [Example 1406, {4-[7-(6-Methoxy-pyridin-3-yl)-pyrrolo[2,1-f][1,2,4]triazin-2-ylamino]-phenyl}-morpholin-4-yl-methanone]: the IC50 in assay [1] is below 100 nM; in assay [2], above 10000 nM.

Regarding `CC(C)(C)NS(=O)(=O)c1cccc(-c2ccc3cnc(Nc4ccc(N5CCN(CC(N)=O)CC5)c(F)c4)nn23)c1` [Example 1407, 2-(4-{4-[7-(3-tert-Butylsulfamoyl-phenyl)-pyrrolo[2,1-f][1,2,4]triazin-2-ylamino]-2-fluoro-phenyl}-piperazin-1-yl)-acetamide], the IC50 is below 100 nM in assay [1] and 100 to 1000 nM in assay [2].

With `CN(c1ccccc1-c1ccc2cnc(Nc3ccc(C4CCN(CC(N)=O)CC4)cc3)nn12)S(C)(=O)=O` [Example 1408, 2-[4-(4-{7-[2-(Methanesulfonyl-methyl-amino)-phenyl]-pyrrolo[2,1-f][1,2,4]triazin-2-ylamino}-phenyl)-piperidin-1-yl]-acetamide], the IC50 in assay [1] and in assay [2] was below 100 nM in each case.

With `CN1CCC(c2ccc(Nc3ncc4ccc(-c5ccccc5OCC(N)=O)n4n3)cc2)CC1` [Example 1409, 2-(2-{2-[4-(1-Methyl-piperidin-4-yl)-phenylamino]-pyrrolo[2,1-f][1,2,4]triazin-7-yl}-phenoxy)-acetamide], the IC50 in assay [1] was below 100 nM; in assay [2], 100 to 1000 nM.

Take `CN1CCN(C(=O)c2ccc(Nc3ncc4ccc(-c5cccc(S(=O)(=O)NC(C)(C)C)c5)n4n3)cc2)CC1` [Example 1410, N-tert-Butyl-3-{2-[4-(4-methyl-piperazine-1-carbonyl)-phenylamino]-pyrrolo[2,1-f][1,2,4]triazin-7-yl}-benzenesulfonamide]: the IC50 was below 100 nM in assay [1] and 100 to 1000 nM in assay [2].

Consider `COc1ccc(-c2ccc3cnc(Nc4ccc(C5CCN(CC(N)=O)CC5)cc4)nn23)cn1` [Example 1413, 2-(4-{4-[7-(6-Methoxy-pyridin-3-yl)-pyrrolo[2,1-f][1,2,4]triazin-2-ylamino]-phenyl}-piperidin-1-yl)-acetamide], for which the IC50 was below 100 nM in assay [1] and 100 to 1000 nM in assay [2].
